Measured values published in ChEMBL document CHEMBL1201862, “PubChem BioAssay data set” (2004).
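All cell lines were grown in 96-well plates and treated with compound for 48 hours. Abbreviation: GI50, concentration required for 50% inhibition of growth.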 The source made the active and inactive calls. Cut-off read from the data, not from the text of the source: active = GI50 up to about 1.1 µM and inactive = higher.

How the values were obtained:
Assay in all cases: DTP human tumour cell line panel, 48 h
[1] = test system: 786-0
[2] = test system: A549
[3] = test system: ACHN
[4] = test system: CCRF-CEM
[5] = test system: HCT-116
[6] = test system: HCT-15
[7] = test system: HOP-92
[8] = test system: SF-295
[9] = test system: SK-MEL-2
[10] = test system: SNB-19
[11] = test system: SNB-75
[12] = test system: SW-620
[13] = test system: T47D
[14] = test system: TK-10
[15] = test system: UACC-257
[16] = test system: MOLT-4
[17] = test system: SK-OV-3

Measured: GI50

CC(=O)C1=C(C)N(c2ccc(C)cc2)C2(O)C=CC(=O)C3C(=O)N(c4ccccc4)C(=O)C132 (centres undefined)
11.2 µM: [6]
inactive: [1] 30.6 µM | [2] 38.3 µM | [3] 15.9 µM | [4] 3.9 µM | [5] 6.49 µM | [7] 16.8 µM | [8] 14.4 µM | [9] 12.5 µM | [10] 25.2 µM | [11] 24.4 µM | [12] 4.45 µM | [13] 14.1 µM | [14] 18.4 µM | [15] 17.6 µM

Cc1cc2nc3n(c2cc1C)C(c1c(F)cccc1F)SC3 (centres undefined)
> 10 µM: [6]
inactive: [1] 19.3 µM | [2] 23.7 µM | [3] 17.4 µM | [4] 19.4 µM | [5] 14.1 µM | [16] 13.7 µM | [8] 22.3 µM | [9] 18.5 µM | [17] 62.7 µM | [10] 18.3 µM | [11] 11.6 µM | [12] 21.3 µM | [13] 57.8 µM | [14] 46.8 µM | [15] 30.7 µM

Cc1ccc2nc(-c3ccc(N4C(=O)C(Cl)C4c4ccc(Cl)cc4)cc3)sc2c1 (centres undefined)
inactive: [1] 21.9 µM | [2] 17.3 µM | [3] 22.4 µM | [4] 7.94 µM | [5] 21.6 µM | [8] 15.1 µM | [17] 12.7 µM | [10] 33.1 µM | [12] 21.5 µM | [13] 27.8 µM | [14] 16.4 µM | [15] 25.1 µM
27.3 µM: [6]
active: [7] 0.137 µM

CC(C)(CO)CNc1nc(N)nc(Cl)c1/C=N/O
inactive: [1] 36.7 µM | [2] 16.9 µM | [3] 28.6 µM | [4] 23 µM | [5] 10.2 µM | [7] 19.7 µM | [16] 17 µM | [8] 14.1 µM | [9] 39.7 µM | [11] 50.9 µM | [12] 82.6 µM | [13] 4.31 µM | [14] 35 µM | [15] 36.1 µM
61.7 µM: [6]

c1cc(C2N3CCCN2CC3)ccn1 (centres undefined)
inactive: [1] 56.2 µM | [2] > 100 µM | [3] > 100 µM | [4] 33.4 µM | [5] 36.9 µM | [16] 36.1 µM | [8] > 100 µM | [9] > 100 µM | [17] > 100 µM | [10] > 100 µM | [11] > 100 µM | [12] 41.8 µM | [13] > 100 µM | [14] > 100 µM | [15] > 100 µM
> 100 µM: [6]

COc1ccc(C(=O)c2[nH]c(Nc3cc(C)ccn3)c(C(=S)Nc3ccccc3)c2N)cc1
inactive: [1] 21 µM | [2] 23.4 µM | [3] 30.4 µM | [5] 20.7 µM | [16] 23.4 µM | [8] 17.9 µM | [9] 10.1 µM | [17] 19.5 µM | [10] 18.8 µM | [11] 20.5 µM | [12] 25.3 µM | [13] 51.2 µM | [14] 20 µM | [15] 15.9 µM
21.1 µM: [6]

Cc1ccc2c(c1)C(=O)c1nc(C)ccc1C2=O
inactive: [1] 43.8 µM | [2] 31 µM | [3] 33.3 µM | [4] 27.9 µM | [5] 23.9 µM | [16] 69.3 µM | [8] 38.1 µM | [9] > 100 µM | [17] > 100 µM | [10] 22.4 µM | [11] 29.8 µM | [12] 33.5 µM | [13] 38.3 µM | [14] 38.3 µM | [15] 23.6 µM
22.6 µM: [6]

NC(=O)C[S+]([O-])CC(N)C(=O)O (centres undefined)
inactive: [1] > 100 µM | [2] > 100 µM | [3] > 100 µM | [5] > 100 µM | [7] > 100 µM | [16] > 100 µM | [8] > 100 µM | [9] > 100 µM | [10] > 100 µM | [11] > 100 µM | [12] > 100 µM | [13] > 100 µM | [14] > 100 µM | [15] > 100 µM
> 100 µM: [6]

O=C(O)Cc1cccc2c1OC(c1ccccc1)C(C(=O)c1ccccc1)C2=O (centres undefined)
98.4 µM: [6]
inactive: [1] 52.5 µM | [2] 36.3 µM | [3] 40.3 µM | [4] 41.2 µM | [5] 33 µM | [16] 43.1 µM | [8] 37.4 µM | [17] 2.07 µM | [10] 45.9 µM | [11] 12.2 µM | [12] 37.8 µM | [13] 10.1 µM | [14] 26.5 µM | [15] > 100 µM

COc1ccccc1-n1c(=O)n(C)c(=O)n1C(C)(C)C
> 100 µM: [6]
inactive: [1] > 100 µM | [2] > 100 µM | [4] > 100 µM | [5] > 100 µM | [16] > 100 µM | [9] > 100 µM | [17] > 100 µM | [10] > 100 µM | [11] > 100 µM | [12] > 100 µM | [13] > 100 µM | [14] > 100 µM | [15] > 100 µM

Cc1ccccc1NC(=O)C(=O)CC(=O)c1sc(Nc2ccccc2[N+](=O)[O-])nc1C
52.4 µM: [6]
inactive: [1] 21.5 µM | [2] 34.8 µM | [3] 20.3 µM | [5] 29.7 µM | [7] 29.3 µM | [16] 51.1 µM | [8] 22.5 µM | [9] 56.6 µM | [17] 25.2 µM | [10] 34.7 µM | [12] 36.1 µM | [13] 27.2 µM | [14] 25.7 µM | [15] 29.9 µM

Oc1ccc(/C=N/CC2CCCN3CCCCC23)cc1 (centres undefined)
inactive: [1] 17.9 µM | [2] 27.3 µM | [3] 15.5 µM | [5] 16.7 µM | [7] 24.2 µM | [16] 27.4 µM | [8] 26.1 µM | [9] 19.5 µM | [17] 46 µM | [10] 25.3 µM | [11] 51.8 µM | [13] 31.3 µM | [14] 23.4 µM | [15] 24.3 µM
24.4 µM: [6]

CCCCCC(C)(C)CCC(=O)OC1OC(COC2OC(COC3OC(CO)C(O)C(O)C3O)C(O)C(O)C2O)C(O)C(O)C1O (centres undefined)
> 100 µM: [6]
inactive: [1] > 100 µM | [2] > 100 µM | [3] > 100 µM | [4] > 100 µM | [5] > 100 µM | [7] > 100 µM | [16] > 100 µM | [8] > 100 µM | [9] > 100 µM | [17] > 100 µM | [10] > 100 µM | [12] > 100 µM | [13] > 100 µM | [14] > 100 µM | [15] > 100 µM

O=c1[nH]nc(Cc2ccccc2)n1C1CCCC1
inactive: [1] > 100 µM | [2] > 100 µM | [3] > 100 µM | [4] > 100 µM | [5] > 100 µM | [16] > 100 µM | [8] > 100 µM | [17] > 100 µM | [10] > 100 µM | [11] > 100 µM | [12] > 100 µM | [13] > 100 µM | [14] > 100 µM | [15] > 100 µM
> 100 µM: [6]

COc1ccc(-c2c(C#N)c(S)n(NS(=O)(=O)c3ccc(C)cc3)c(=O)c2C#N)cc1
inactive: [1] 15.6 µM | [2] 27.5 µM | [3] 16.4 µM | [4] 4.06 µM | [5] 14.4 µM | [7] 33.1 µM | [16] 7.06 µM | [8] 30 µM | [9] 15.3 µM | [17] 32.8 µM | [10] 35.8 µM | [11] 30.5 µM | [12] 18.6 µM | [14] 32.4 µM | [15] 32 µM
16 µM: [6]

Cc1cc2nnn(C3CCCCO3)c2cc1C (centres undefined)
inactive: [1] > 100 µM | [2] > 100 µM | [3] > 100 µM | [4] > 100 µM | [5] > 100 µM | [16] > 100 µM | [8] > 100 µM | [9] > 100 µM | [17] > 100 µM | [10] > 100 µM | [11] 88.1 µM | [13] 95.5 µM | [14] > 100 µM | [15] > 100 µM
> 100 µM: [6]

CSc1nc2c(N)ncnc2n1C
> 100 µM: [6]
inactive: [1] > 100 µM | [2] > 100 µM | [3] > 100 µM | [4] > 100 µM | [5] > 100 µM | [16] > 100 µM | [8] > 100 µM | [9] > 100 µM | [17] > 100 µM | [10] > 100 µM | [11] 82.8 µM | [12] > 100 µM | [13] > 100 µM | [14] > 100 µM | [15] > 100 µM

Brc1ccc2c3c1[C@H]1O[C@H]1c1cccc(c1-3)[C@@H]1O[C@H]21
21.3 µM: [6]
inactive: [1] 12.4 µM | [2] 22 µM | [3] 15.3 µM | [5] 13.2 µM | [7] 20.5 µM | [16] 3.61 µM | [8] 15.5 µM | [9] 18.3 µM | [17] 19.1 µM | [10] 18 µM | [11] 13.2 µM | [13] 10.3 µM | [14] 17.7 µM | [15] 14.8 µM
